Literature values, collected in patent US10064856B2, “Pharmaceutical compositions” (LOCL PHARMA, INC., priority 2008, dated 2018).

Conditions: more than about 0.6 to 2.0 gm, typically more than about 0.6 gm

In the case of `O=S(=O)([O-])[O-].[Zn+2]` [Zinc sulfate, zinc sulfate], the “amount ingested that can induce emesis” value is listed as “more than 0.6 gm”.
